Data from patent US5141926A, “Erythromycin derivatives” (Abbott Laboratories, priority 1990, dated 1992).
Values after ≈ are worked out from the molar mass of the structure shown. Read-outs that look alike come from different tables or passages of the source. One block for each compound: values may come before it.

Legend:
[1] = system: Enterococcus faecium ATCC 8043; test: Agar plate dilution MIC; assay type: cell-based
Experimental: (§1) 6-Deoxyerythromycins A, B and C and 6-deoxy-15-norerythromycin B were tested for antibacterial activity using a standard agar plate dilution method in brain heart infusion broth. Erythromycin A was utilized as a control.

Eschericha coli SS = test: Agar plate dilution MIC; assay type: cell-based; conditions: brain heart infusion broth
Experimental: as §1

Escherichia coli JUHL = test: Agar plate dilution MIC; assay type: cell-based
Experimental: as §1

[2] = system: Micrococcus luteus ATCC 9341; test: Agar plate dilution MIC; assay type: cell-based
Experimental: as §1

[3] = system: Staphylococcus aureus ATCC 6538P; test: Agar plate dilution MIC; assay type: cell-based; conditions: ATCC6538P
Experimental: as §1

[4] = system: Staphylococcus aureus CMX 553; test: Agar plate dilution MIC; assay type: cell-based
Experimental: as §1

[5] = system: Staphylococcus aureus NCTC 10649; test: Agar plate dilution MIC; assay type: cell-based
Experimental: as §1

[6] = system: Staphylococcus epidermis 3519; test: Agar plate dilution MIC; assay type: cell-based; conditions: brain heart infusion broth
Experimental: as §1

[7] = system: Streptococcus agalactiae CMX 508; test: Agar plate dilution MIC; assay type: cell-based
Experimental: as §1

[8] = system: Streptococcus pyogenes EES61; test: Agar plate dilution MIC; assay type: cell-based
Experimental: as §1

[9] = system: Staphylococcus aureus 10649; test: Acute mouse protection test; assay type: in vivo, female CF-1 mice; conditions: read-out: ED50 (Dose Providing 50% Survival)
Experimental: (§2) The in vivo activity of 6-deoxyerythromycin A was evaluated using the acute mouse protection test. Mouse mortality was used to calcualte an ED50 value, i.e., the dose of drug required to protect 50% of the test animals against death due to inoculum challenge.
(§3) The acute mouse protection test was conducted as described by Fernandes, et al. (Antimicrob. Agents Chemother. 29:201-208(1986)) on female CF-1 mice weighing 20-25 grams. The mice were injected intraperitoneally with bacterial suspensions at a concentration 100 times that producing an LD50 response. 6-Deoxyerythromycin A or erythromycin A were administered orally at 1 and 5 hours post-infection. The median effective doses for the cumulative mortalities on the sixth day after infection were calculated using a trimmed logit analysis (Hamilton, et. al., Environ Sci. Technol. 11:714-719 (1977)).

[10] = system: Streptococcus pneumoniae 6303; test: Acute mouse protection test; assay type: in vivo, female CF-1 mice; conditions: read-out: ED50 (Dose Providing 50% Survival)
Experimental: as §2, §3

[11] = system: Streptococcus pyogenes C203; test: Acute mouse protection test; assay type: in vivo, female CF-1 mice; conditions: read-out: ED50 (Dose Providing 50% Survival)
Experimental: as §2, §3

[12] = system: murine infections of Staphylococci and Streptococci; test: Acute mouse protection test, overall result; assay type: in vivo, female CF-1 mice; conditions: orally administered
Experimental: as §2, §3

physchem = conditions: citric acid solution, pH 2.2
Experimental: The relative acid stability of one of the compounds of the present invention was compared to that of erythromycin A. 11.8 mg of 6-deoxyerythromycin A was suspended in citric acid solution (pH 2.2) and allowed to remain at 37° C. for 8 hours. Aliquots were removed at 2, 5, 10, and 20 minutes and at 1, 2, 3, 4, 5, 6 and 8 hours. Degradation was quenced by adjusting each aliquot to pH 9.6 with 7.5 N NH4 OH, followed by extraction with methylene chloride.
10.5 mg of erythromycin A was identically suspended in critic acid solution (pH 2.0) and allowed to remain at 37° C. for 10 minutes. Aliquots were removed at 2, 5 and 10 minutes. Degradation was quenched by adjusting each aliquot to pH 9.6 with 7.5 N NH4 OH, followed by extraction with methylene chloride.

[13] = ATCC8043, Table 5, brain heart infusion broth, read-out: MIC value
[14] = Table 5, brain heart infusion broth
[15] = ATCC9341, Table 5, brain heart infusion broth, read-out: MIC value
[16] = Table 5, brain heart infusion broth, read-out: MIC value
[17] = CMX553, Table 5, brain heart infusion broth, read-out: MIC value
[18] = NCTC10649, Table 5, brain heart infusion broth, read-out: MIC value
[19] = Staphylococcus, 3519, Table 5, read-out: MIC value
[20] = CMX508, Table 5, brain heart infusion broth, read-out: MIC value
[21] = EES61, Table 5, brain heart infusion broth, read-out: MIC value
[22] = ATCC8043, Table 4, brain heart infusion broth, read-out: MIC value
[23] = Table 4, brain heart infusion broth
[24] = ATCC9341, Table 4, brain heart infusion broth, read-out: MIC value
[25] = Table 4, brain heart infusion broth, read-out: MIC value
[26] = CMX553, Table 4, brain heart infusion broth, read-out: MIC value
[27] = NCTC10649, Table 4, brain heart infusion broth, read-out: MIC value
[28] = Staphylococcus, 3519, Table 4, read-out: MIC value
[29] = CMX508, Table 4, brain heart infusion broth, read-out: MIC value
[30] = EES61, Table 4, brain heart infusion broth, read-out: MIC value

SMILES: CO[C@]1(C)C[C@H](O[C@H]2[C@H](C)[C@@H](O[C@@H]3O[C@H](C)C[C@H](N(C)C)[C@H]3O)[C@@H](C)C[C@@H](C)C(=O)[C@H](C)[C@@H](O)[C@@H](C)[C@@H](C)OC(=O)[C@@H]2C)O[C@@H](C)[C@@H]1O [6-Deoxy-15-norerythromycin B]
MIC [1, 13]: 2 µg/mL (≈ 2.91 µM)
MIC (Eschericha coli SS; Table 5): 2 µg/mL (≈ 2.91 µM)
MIC (Escherichia coli JUHL; [14]): > 128 µg/mL
MIC [2, 15]: 0.25 µg/mL (≈ 0.363 µM)
MIC [3, 16]: 2 µg/mL (≈ 2.91 µM)
MIC [4, 17]: 2 µg/mL (≈ 2.91 µM)
MIC [5, 18]: 2 µg/mL (≈ 2.91 µM)
MIC [6, 19]: 2 µg/mL (≈ 2.91 µM)
MIC [7, 20]: 0.5 µg/mL (≈ 0.727 µM)
MIC [8, 21]: 0.25 µg/mL (≈ 0.363 µM)

SMILES: CC[C@H]1OC(=O)[C@H](C)[C@@H](O[C@H]2C[C@@](C)(OC)[C@@H](O)[C@H](C)O2)[C@H](C)[C@@H](O[C@@H]2O[C@H](C)C[C@H](N(C)C)[C@H]2O)[C@@H](C)C[C@@H](C)C(=O)[C@H](C)[C@@H](O)[C@]1(C)O [6-Deoxyerythromycin A]
MIC [1, 22]: 0.25 µg/mL (≈ 0.348 µM)
MIC (Eschericha coli SS; Table 4): 2 µg/mL (≈ 2.79 µM)
MIC (Escherichia coli JUHL; [23]): > 128 µg/mL
MIC [2, 24]: 0.06 µg/mL (≈ 0.0836 µM)
MIC [3, 25]: 1 µg/mL (≈ 1.39 µM)
MIC [4, 26]: 0.5 µg/mL (≈ 0.696 µM)
MIC [5, 27]: 1 µg/mL (≈ 1.39 µM)
MIC [6, 28]: 1 µg/mL (≈ 1.39 µM)
MIC [7, 29]: 0.12 µg/mL (≈ 0.167 µM)
MIC [8, 30]: 0.25 µg/mL (≈ 0.348 µM)
ED50 ([9]; Staphylococcus aureus, 10649, 144 h, oral, 1 and 5 hours post-infection, intraperitoneal inoculum 100 times LD50, mortality on sixth day): 90.8 mg/kg
ED50 ([10]; Streptococcus pneumoniae, 6303, 144 h, oral, 1 and 5 hours post-infection, intraperitoneal inoculum 100 times LD50, mortality on sixth day): 24.9 mg/kg
ED50 ([11]; C203, 144 h, oral, 1 and 5 hours post-infection, intraperitoneal inoculum 100 times LD50, mortality on sixth day): 32.4 mg/kg
effectiveness compared with erythromycin A [12]: as effective as erythromycin A
remaining at 4 h (physchem): > 50%
remaining at 8 h (physchem): ~40%

SMILES: CC[C@H]1OC(=O)[C@H](C)[C@@H](O[C@H]2C[C@@](C)(OC)[C@@H](O)[C@H](C)O2)[C@H](C)[C@@H](O[C@@H]2O[C@H](C)C[C@H](N(C)C)[C@H]2O)[C@](C)(O)C[C@@H](C)C(=O)[C@H](C)[C@@H](O)[C@]1(C)O [Erythromycin A, reference compound]
MIC ([1]; ATCC8043, read-out: MIC value, Table 4, brain heart infusion broth): 0.12 µg/mL (≈ 0.164 µM)
MIC ([1]; ATCC8043, read-out: MIC value, Table 5, brain heart infusion broth): 0.06 µg/mL (≈ 0.0818 µM)
MIC (Eschericha coli SS; Table 4): 1 µg/mL (≈ 1.36 µM)
MIC value (Eschericha coli SS; Table 5): 1 µg/mL (≈ 1.36 µM)
MIC (Escherichia coli JUHL; [23]): 64 µg/mL (≈ 87.2 µM)
MIC (Escherichia coli JUHL; [14]): 32 µg/mL (≈ 43.6 µM)
MIC ([2]; ATCC9341, read-out: MIC value, Table 4, brain heart infusion broth): 0.03 µg/mL (≈ 0.0409 µM)
MIC ([2]; ATCC9341, read-out: MIC value, Table 5, brain heart infusion broth): 0.015 µg/mL (≈ 0.0204 µM)
MIC ([3]; read-out: MIC value, Table 4, brain heart infusion broth): 0.25 µg/mL (≈ 0.341 µM)
MIC ([3]; read-out: MIC value, Table 5, brain heart infusion broth): 0.12 µg/mL (≈ 0.164 µM)
MIC ([4]; CMX553, read-out: MIC value, Table 4, brain heart infusion broth): 0.25 µg/mL (≈ 0.341 µM)
MIC ([4]; CMX553, read-out: MIC value, Table 5, brain heart infusion broth): 0.12 µg/mL (≈ 0.164 µM)
MIC ([5]; NCTC10649, read-out: MIC value, Table 4, brain heart infusion broth): 0.25 µg/mL (≈ 0.341 µM)
MIC ([5]; NCTC10649, read-out: MIC value, Table 5, brain heart infusion broth): 0.12 µg/mL (≈ 0.164 µM)
MIC ([6]; Staphylococcus, 3519, read-out: MIC value, Table 4): 0.5 µg/mL (≈ 0.681 µM)
MIC ([6]; Staphylococcus, 3519, read-out: MIC value, Table 5): 0.12 µg/mL (≈ 0.164 µM)
MIC ([7]; CMX508, read-out: MIC value, Table 4, brain heart infusion broth): 0.06 µg/mL (≈ 0.0818 µM)
MIC ([7]; CMX508, read-out: MIC value, Table 5, brain heart infusion broth): 0.03 µg/mL (≈ 0.0409 µM)
MIC ([8]; EES61, read-out: MIC value, Table 4, brain heart infusion broth): 0.03 µg/mL (≈ 0.0409 µM)
MIC ([8]; EES61, read-out: MIC value, Table 5, brain heart infusion broth): 0.015 µg/mL (≈ 0.0204 µM)
ED50 ([9]; Staphylococcus aureus, 10649, po, 144 h): 120 mg/kg
ED50 ([10]; Streptococcus pneumoniae, 6303, po, 144 h): 24.8 mg/kg
ED50 ([11]; C203, po, 144 h): 54.5 mg/kg
remaining at 2 min (physchem): < 10%

The remaining lines, values ahead:

MIC [1, 13]: 0.5 µg/mL (≈ 0.712 µM)
MIC (Eschericha coli SS; Table 5): 4 µg/mL (≈ 5.7 µM)
MIC (Escherichia coli JUHL; [14]): > 128 µg/mL
MIC [2, 15]: 0.12 µg/mL (≈ 0.171 µM)
MIC [3, 16]: 1 µg/mL (≈ 1.42 µM)
MIC [4, 17]: 1 µg/mL (≈ 1.42 µM)
MIC [5, 18]: 1 µg/mL (≈ 1.42 µM)
MIC [6, 19]: 1 µg/mL (≈ 1.42 µM)
MIC [7, 20]: 0.25 µg/mL (≈ 0.356 µM)
MIC [8, 21]: 0.12 µg/mL (≈ 0.171 µM)
SMILES: CC[C@H]1OC(=O)[C@H](C)[C@@H](O[C@H]2C[C@@](C)(OC)[C@@H](O)[C@H](C)O2)[C@H](C)[C@@H](O[C@@H]2O[C@H](C)C[C@H](N(C)C)[C@H]2O)[C@@H](C)C[C@@H](C)C(=O)[C@H](C)[C@@H](O)[C@H]1C [6-Deoxyerythromycin B]

MIC [1, 22]: 0.25 µg/mL (≈ 0.355 µM)
MIC (Eschericha coli SS; Table 4): 16 µg/mL (≈ 22.7 µM)
MIC (Escherichia coli JUHL; [23]): > 128 µg/mL
MIC [2, 24]: 0.25 µg/mL (≈ 0.355 µM)
MIC [3, 25]: 2 µg/mL (≈ 2.84 µM)
MIC [4, 26]: 4 µg/mL (≈ 5.68 µM)
MIC [5, 27]: 2 µg/mL (≈ 2.84 µM)
MIC [6, 28]: 4 µg/mL (≈ 5.68 µM)
MIC [7, 29]: 0.25 µg/mL (≈ 0.355 µM)
MIC [8, 30]: 0.5 µg/mL (≈ 0.71 µM)
SMILES: CC[C@H]1OC(=O)[C@H](C)[C@@H](O[C@H]2C[C@@](C)(O)[C@@H](O)[C@H](C)O2)[C@H](C)[C@@H](O[C@@H]2O[C@H](C)C[C@H](N(C)C)[C@H]2O)[C@@H](C)C[C@@H](C)C(=O)[C@H](C)[C@@H](O)[C@]1(C)O [6-Deoxyerythromycin C]

MIC [1, 13]: 0.12 µg/mL (≈ 0.167 µM)
MIC (Eschericha coli SS; Table 5): 2 µg/mL (≈ 2.79 µM)
MIC (Escherichia coli JUHL; [14]): 32 µg/mL (≈ 44.6 µM)
MIC [2, 15]: 0.03 µg/mL (≈ 0.0418 µM)
MIC [3, 16]: 0.25 µg/mL (≈ 0.348 µM)
MIC [4, 17]: 0.25 µg/mL (≈ 0.348 µM)
MIC [5, 18]: 0.25 µg/mL (≈ 0.348 µM)
MIC [6, 19]: 0.25 µg/mL (≈ 0.348 µM)
MIC [7, 20]: 0.03 µg/mL (≈ 0.0418 µM)
MIC [8, 21]: 0.03 µg/mL (≈ 0.0418 µM)
SMILES: CC[C@H]1OC(=O)[C@H](C)[C@@H](O[C@H]2C[C@@](C)(OC)[C@@H](O)[C@H](C)O2)[C@H](C)[C@@H](O[C@@H]2O[C@H](C)C[C@H](N(C)C)[C@H]2O)[C@](C)(O)C[C@@H](C)C(=O)[C@H](C)[C@@H](O)[C@H]1C [Erythromycin B, reference compound]
